Assay results as given in patent publication US20100311714A1, “1H-IMIDAZO[4,5-c]QUINOLINONE COMPOUNDS” (priority 2009, published 2010).
Like-named read-outs stand apart in the source and are kept apart here.

Molecular target: T1, PI3K delta (Homo sapiens, UniProt O00329)
T1 construct: for the full-length p110-d subunit are generated and fused by overlapping PCR; His tag (C); made in house; host or cells: baculovirus BV1060; Tn5 (Trichoplusia ni) or TiniPro insect cells
Assay: PI3K delta kinase assay (Kinase-Glo luminescence)
Assay type: biochemical
Procedure, shortened: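 IC50s derive from 8-point inhibition curves fitted to a 4-parameter logistic model. Reaction: 10 nM purified p110δ/p85 iSH2 fusion, 1 μM ATP, 10 μg/mL PI substrate, pH 7.5 Tris buffer with MgCl2, NaCl, CHAPS and DTT, run 60 min at room temperature; remaining ATP read by Kinase-Glo luminescence.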

T1 sequence (O00329 with tags, fused parts or gaps limits assumed): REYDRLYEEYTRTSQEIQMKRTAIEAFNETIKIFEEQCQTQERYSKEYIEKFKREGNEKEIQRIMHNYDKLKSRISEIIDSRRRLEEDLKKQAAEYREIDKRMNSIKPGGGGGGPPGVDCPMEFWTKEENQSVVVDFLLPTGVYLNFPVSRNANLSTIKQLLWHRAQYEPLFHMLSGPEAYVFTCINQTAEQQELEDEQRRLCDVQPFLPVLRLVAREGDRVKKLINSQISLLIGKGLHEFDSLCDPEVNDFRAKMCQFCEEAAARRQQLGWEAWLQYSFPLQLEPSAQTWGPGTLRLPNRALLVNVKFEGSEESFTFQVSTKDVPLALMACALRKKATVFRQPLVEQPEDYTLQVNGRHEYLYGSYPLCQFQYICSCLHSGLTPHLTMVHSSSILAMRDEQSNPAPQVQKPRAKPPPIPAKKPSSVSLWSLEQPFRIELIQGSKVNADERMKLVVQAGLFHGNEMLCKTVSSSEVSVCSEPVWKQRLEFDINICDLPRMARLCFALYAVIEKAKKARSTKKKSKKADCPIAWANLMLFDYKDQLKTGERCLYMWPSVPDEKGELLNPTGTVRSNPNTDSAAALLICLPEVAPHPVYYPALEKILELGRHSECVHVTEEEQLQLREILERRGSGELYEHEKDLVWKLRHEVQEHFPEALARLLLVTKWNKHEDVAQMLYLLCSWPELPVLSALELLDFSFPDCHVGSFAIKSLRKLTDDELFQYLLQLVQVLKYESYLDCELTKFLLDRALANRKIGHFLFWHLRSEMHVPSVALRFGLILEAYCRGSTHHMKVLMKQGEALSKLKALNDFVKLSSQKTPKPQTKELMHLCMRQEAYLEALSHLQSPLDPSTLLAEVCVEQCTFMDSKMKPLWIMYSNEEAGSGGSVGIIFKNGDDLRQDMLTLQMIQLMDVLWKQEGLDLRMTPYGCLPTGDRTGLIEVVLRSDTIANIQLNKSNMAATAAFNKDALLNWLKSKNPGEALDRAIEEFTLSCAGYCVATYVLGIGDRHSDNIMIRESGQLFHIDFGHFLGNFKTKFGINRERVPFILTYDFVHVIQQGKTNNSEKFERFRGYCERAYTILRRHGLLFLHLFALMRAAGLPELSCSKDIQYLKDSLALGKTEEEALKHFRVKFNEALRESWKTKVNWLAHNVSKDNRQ

Row | SMILES | IC50 (read-out: PI3Kdelta/IC50) [nM] | IC50 (read-out: EPK_PI3Kdelta/IC50) [nM]
1 | Cc1ncccc1-n1c(=O)n(C)c2cnc3ccc(-c4cnc5[nH]ccc5c4)cc3c21 [Example 2.8, 3-Methyl-1-(2-methyl-pyridin-3-yl)-8-(1H-pyrrolo[2,3-b]pyridin-5-yl)-1,3-dihydro-imidazo[4,5-c]quinolin-2-one] | 35 | 
2 | COc1cc(-c2ccc3ncc4c(c3c2)n(-c2ccc(N)nc2C)c(=O)n4C)cnc1CO [Example 30.1, 1-(6-Amino-2-methyl-pyridin-3-yl)-8-(6-hydroxymethyl-5-methoxy-pyridin-3-yl)-3-methyl-1,3-dihydro-imidazo[4,5-c]quinolin-2-one] |  | 118
3 | COc1cc(-c2ccc3ncc4c(c3c2)n(-c2ccc(N3CC(F)(F)C3)nc2C)c(=O)n4C)cnc1CO [Example 24.4, 1-[6-(3,3-Difluoro-azetidin-1-yl)-2-methyl-pyridin-3-yl]-8-(6-hydroxymethyl-5-methoxy-pyridin-3-yl)-3-methyl-1,3-dihydro-imidazo[4,5-c]quinolin-2-one] |  | 248
4 | CNc1ncc(-c2ccc3ncc4c(c3c2)n(-c2ccc(N3CC[C@@H](O)C3)nc2C)c(=O)n4C)cn1 [Example 34.1, 1-[6-((R)-3-Hydroxy-pyrrolidin-1-yl)-2-methyl-pyridin-3-yl]-3-methyl-8-(2-methylamino-pyrimidin-5-yl)-1,3-dihydro-imidazo[4,5-c]quinolin-2-one] |  | 42
5 | CNc1ncc(-c2ccc3ncc4c(c3c2)n(-c2ccc(N3CC[C@H](O)C3)nc2C)c(=O)n4C)cc1Cl [Example 32.4, 8-(5-Chloro-6-methylamino-pyridin-3-yl)-1-[6-((S)-3-hydroxy-pyrrolidin-1-yl)-2-methyl-pyridin-3-yl]-3-methyl-1,3-dihydro-imidazo[4,5-c]quinolin-2-one] |  | 5
6 | CCNc1cc(-c2ccc3ncc4c(c3c2)n(-c2ccc(N3CCCC3)nc2C)c(=O)n4C)cnc1CO [Example 25.5, 8-(5-Ethylamino-6-hydroxymethyl-pyridin-3-yl)-3-methyl-1-(2-methyl-6-pyrrolidin-1-yl-pyridin-3-yl)-1,3-dihydro-imidazo[4,5-c]quinolin-2-one] |  | 33
7 | COc1ccc(-n2c(=O)n(C)c3cnc4ccc(-c5cnc(CO)c(OC)c5)cc4c32)c(OC)n1 [Example 8.14, 1-(2,6-Dimethoxy-pyridin-3-yl)-8-(6-hydroxymethyl-5-methoxy-pyridin-3-yl)-3-methyl-1,3-dihydro-imidazo[4,5-c]quinolin-2-one] |  | 311
8 | Cc1nc(N2CCC(O)C2)ccc1-n1c(=O)n(C)c2cnc3ccc(-c4cncc(C(C)(C)O)c4)cc3c21 (stereo not shown) [Example 27.5, 8-[5-(1-Hydroxy-1-methyl-ethyl)-pyridin-3-yl]-1-[6-(3-hydroxy-pyrrolidin-1-yl)-2-methyl-pyridin-3-yl]-3-methyl-1,3-dihydro-imidazo[4,5-c]quinolin-2-one] |  | 148
9 | Cn1c(=O)n(-c2cccnc2F)c2c3cc(-c4cnc5[nH]ccc5c4)ccc3ncc21 [Example 6.3, 1-(2-Fluoro-pyridin-3-yl)-3-methyl-8-(1H-pyrrolo[2,3-b]pyridin-5-yl)-1,3-dihydro-imidazo[4,5-c]quinolin-2-one] | 78 | 
10 | Cc1nc(N2CCC(O)C2)ccc1-n1c(=O)n(C)c2cnc3ccc(-c4cnc(N)c(C(F)(F)F)c4)cc3c21 (stereo not shown) [Example 27.3, 8-(6-Amino-5-trifluoromethyl-pyridin-3-yl)-1-[6-(3-hydroxy-pyrrolidin-1-yl)-2-methyl-pyridin-3-yl]-3-methyl-1,3-dihydro-imidazo[4,5-c]quinolin-2-one] |  | < 3
11 | COc1cc(-c2ccc3ncc4c(c3c2)n(-c2ccc(N3CC[C@H](O)C3)nc2C)c(=O)n4C)cnc1CO [Example 32.7, 8-(6-Hydroxymethyl-5-methoxy-pyridin-3-yl)-1-[6-((S)-3-hydroxy-pyrrolidin-1-yl)-2-methyl-pyridin-3-yl]-3-methyl-1,3-dihydro-imidazo[4,5-c]quinolin-2-one] |  | 35
12 | Cc1nc(F)ccc1-n1c(=O)n(C)c2cnc3ccc(-c4cncc(N5CCC5)c4)cc3c21 [Example 7.6, 8-(5-Azetidin-1-yl-pyridin-3-yl)-1-(6-fluoro-2-methyl-pyridin-3-yl)-3-methyl-1,3-dihydro-imidazo[4,5-c]quinolin-2-one] |  | 148
13 | CCNc1cc(-c2ccc3ncc4c(c3c2)n(-c2ccc(N(C)CCO)nc2C)c(=O)n4C)cnc1CO [Example 26.3, 8-(5-Ethylamino-6-hydroxymethyl-pyridin-3-yl)-1-{6-[(2-hydroxy-ethyl)-methyl-amino]-2-methyl-pyridin-3-yl}-3-methyl-1,3-dihydro-imidazo[4,5-c]quinolin-2-one] |  | 287
14 | CCNc1cc(-c2ccc3ncc4c(c3c2)n(-c2ccc(N3CC(F)(F)C(F)(F)C3)nc2C)c(=O)n4C)cnc1CO [Example 35.2, 8-(5-Ethylamino-6-hydroxymethyl-pyridin-3-yl)-3-methyl-1-[2-methyl-6-(3,3,4,4-tetrafluoro-pyrrolidin-1-yl)-pyridin-3-yl]-1,3-dihydro-imidazo[4,5-c]quinolin-2-one] |  | 10
15 | COc1cc(-c2ccc3ncc4c(c3c2)n(-c2ccc(F)nc2C)c(=O)n4C)cnc1CO [Example 7.10, 1-(6-Fluoro-2-methyl-pyridin-3-yl)-8-(6-hydroxymethyl-5-methoxy-pyridin-3-yl)-3-methyl-1,3-dihydro-imidazo[4,5-c]quinolin-2-one] |  | 186
16 | COCc1ncc(-c2ccc3ncc4c(c3c2)n(-c2ccc(F)nc2C)c(=O)n4C)cc1OC [Example 7.7, 1-(6-Fluoro-2-methyl-pyridin-3-yl)-8-(5-methoxy-6-methoxymethyl-pyridin-3-yl)-3-methyl-1,3-dihydro-imidazo[4,5-c]quinolin-2-one] |  | 79
17 | COc1cc(-c2ccc3ncc4c(c3c2)n(-c2ccc(N3CCC(OC)C3)nc2C)c(=O)n4C)cnc1CO (stereo not shown) [Example 28.3, 8-(6-Hydroxymethyl-5-methoxy-pyridin-3-yl)-1-[6-(3-methoxy-pyrrolidin-1-yl)-2-methyl-pyridin-3-yl]-3-methyl-1,3-dihydro-imidazo[4,5-c]quinolin-2-one] |  | 42
18 | CNc1ncc(-c2ccc3ncc4c(c3c2)n(-c2ccc(N3CCC(OC)C3)nc2C)c(=O)n4C)cn1 (stereo not shown) [Example 28.2, 1-[6-(3-Methoxy-pyrrolidin-1-yl)-2-methyl-pyridin-3-yl]-3-methyl-8-(2-methylamino-pyrimidin-5-yl)-1,3-dihydro-imidazo[4,5-c]quinolin-2-one] |  | 159
19 | COc1ccc(-n2c(=O)n(C)c3cnc4ccc(-c5cncc(N6CCC6)c5)cc4c32)c(OC)n1 [Example 8.11, 8-(5-Azetidin-1-yl-pyridin-3-yl)-1-(2,6-dimethoxy-pyridin-3-yl)-3-methyl-1,3-dihydro-imidazo[4,5-c]quinolin-2-one] |  | 126
20 | Cc1nc(N2CC(O)C2)ccc1-n1c(=O)n(C)c2cnc3ccc(-c4cncc(C(C)(C)O)c4)cc3c21 [Example 29.1, 1-[6-(3-Hydroxy-azetidin-1-yl)-2-methyl-pyridin-3-yl]-8-[5-(1-hydroxy-1-methyl-ethyl)-pyridin-3-yl]-3-methyl-1,3-dihydro-imidazo[4,5-c]quinolin-2-one] |  | 19
21 | CCOc1ccc(-c2ccc3ncc4c(c3c2)n(-c2ccc(N3CCC(O)C3)nc2C)c(=O)n4C)cn1 (stereo not shown) [Example 27.4, 8-(6-Ethoxy-pyridin-3-yl)-1-[6-(3-hydroxy-pyrrolidin-1-yl)-2-methyl-pyridin-3-yl]-3-methyl-1,3-dihydro-imidazo[4,5-c]quinolin-2-one] |  | 193
22 | CNC(=O)c1ccc(-c2ccc3ncc4c(c3c2)n(-c2cccnc2C)c(=O)n4C)cc1 [Example 2.4, N-Methyl-4-[3-methyl-1-(2-methyl-pyridin-3-yl)-2-oxo-2,3-dihydro-1H-imidazo[4,5-c]quinolin-8-yl]-benzamide] | 221 | 
23 | COc1ccc(-n2c(=O)n(C)c3cnc4ccc(-c5cnc(C(OC)OC)c(OC)c5)cc4c32)c(OC)n1 [Example 8.13, 8-(6-Dimethoxymethyl-5-methoxy-pyridin-3-yl)-1-(2,6-dimethoxy-pyridin-3-yl)-3-methyl-1,3-dihydro-imidazo[4,5-c]quinolin-2-one] |  | 167
24 | COc1cc(-c2ccc3ncc4c(c3c2)n(-c2ccc(N3CCCC3)nc2C)c(=O)n4C)cnc1CO [Example 25.4, 8-(6-Hydroxymethyl-5-methoxy-pyridin-3-yl)-3-methyl-1-(2-methyl-6-pyrrolidin-1-yl-pyridin-3-yl)-1,3-dihydro-imidazo[4,5-c]quinolin-2-one] |  | 272
25 | COCc1ncc(-c2ccc3ncc4c(c3c2)n(-c2cccnc2C)c(=O)n4C)cc1OC [Example 2.30, 8-(5-Methoxy-6-methoxymethyl-pyridin-3-yl)-3-methyl-1-(2-methyl-pyridin-3-yl)-1,3-dihydro-imidazo[4,5-c]quinolin-2-one] |  | 53
